What was measured:
[1] = Metabolic stability with mouse hepatic microsomes; format: in vitro ADME; details: for Residual rate (%) of unchanged form: mouse hepatic microsomes, after 30 minutes, 37° C., NADPH
Procedure: Metabolic stability in mouse hepatic microsomes was evaluated with the following method.
• (1) Mouse hepatic microsomes: 20 mg/mL • (2) Test compound: 1.1 mM DMSO solution • (3) Potassium phosphate buffer solution: 66.7 mM (pH 7.4) • (4) NADPH solution: 10 mM in potassium phosphate buffer solution • (5) Quenching solution: 0.5% formic acid-acetonitrile solution with warfarin as internal standard substance 2. Method
Into a propylene tube, 971.5 μL of the potassium phosphate buffer solution and 27.5 μL of the mouse hepatic microsomes were put and suspended. Thereto, 1 μL of a test compound was added, and 180 μL was taken from this mixture and transferred into another tube. The mixture was preincubated at 37° C. for 5 minutes, and 20 μL of the NADPH solution (for the case with an incubation time of 30 minutes) or 20 μL of the potassium phosphate buffer solution (for the case with an incubation time of 0 minutes) was then added thereto. After incubation, 200 μL of the quenching solution was added to terminate the reaction. Subsequently, centrifugation was performed at 3220×g for 20 minutes, and the concentration of the unchanged form of the test compound in 200 μL of the supernatant was measured with LC-MS/MS. On the basis of the peak area obtained for the unchanged form, the residual rate (%) of the unchanged form was calculated as that for the case with an incubation time of 0 minutes was assumed as 100%.

[2] = biological target: T1, human recombinant ALDH2 enzyme (Homo sapiens, UniProt P05091); test: ALDH2 activation effect (acetaldehyde oxidation rate, PicoProbe Aldehyde dehydrogenase Activity Assay Kit); format: biochemical
T1 construct: purchased BioVision Inc
T1 sequence (P05091 18-517): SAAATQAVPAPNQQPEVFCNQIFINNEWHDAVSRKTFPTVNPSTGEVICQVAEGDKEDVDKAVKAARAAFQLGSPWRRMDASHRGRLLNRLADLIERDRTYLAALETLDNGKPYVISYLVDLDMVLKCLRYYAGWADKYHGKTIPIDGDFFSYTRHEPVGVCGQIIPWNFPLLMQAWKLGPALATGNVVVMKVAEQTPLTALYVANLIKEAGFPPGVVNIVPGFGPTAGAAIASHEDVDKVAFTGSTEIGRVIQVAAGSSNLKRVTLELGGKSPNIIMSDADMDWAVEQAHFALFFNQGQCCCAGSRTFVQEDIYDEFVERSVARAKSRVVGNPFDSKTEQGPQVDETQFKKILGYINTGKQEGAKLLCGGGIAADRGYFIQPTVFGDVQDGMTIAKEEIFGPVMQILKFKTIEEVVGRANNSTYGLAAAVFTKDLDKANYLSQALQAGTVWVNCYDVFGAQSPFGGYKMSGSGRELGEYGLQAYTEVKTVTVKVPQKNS
Procedure: The activation effect of each test compound on the acetaldehyde oxidation rate of ALDH2 was measured with the following method. A test was conducted by using a commercially available PicoProbe™ Aldehyde dehydrogenase Activity Assay Kit (manufactured by BioVision Inc.) with reference to an instruction attached to the product under the following conditions. To each well of a 384-well plate, the following (1) to (3) were sequentially added with a pipette: • (1) 10 μL of solution obtained by dissolving and diluting a human recombinant ALDH2 enzyme (manufactured by BioVision Inc.) with ALDH assay Buffer to reach 3-μg/mL; • (2) 10 μL of 30 μM or 90 μM test compound solution (with 3% DMSO) prepared by using ALDH assay Buffer; and • (3) 10 μL of Reaction mix composed with ratio of 8.6 μL of ALDH assay Buffer, 0.6 μL of PicoProbe, 0.3 μL of Substrate Mix, and 1.5 μL of Acetaldehyde.
Before addition of (3), incubation was performed at room temperature for 5 minutes. After addition of (3), fluorescence intensity was measured at room temperature every 2.5 minutes over a period of 180 minutes by using an EnSight (manufactured by PerkinElmer Inc.). Wavelengths of 535 nm and 587 nm were used for fluorescence intensities of excitation and -emission, respectively.

[3] = Metabolic stability with human hepatic microsomes; format: in vitro ADME; details: human hepatic microsomes 0.1 mg protein/mL, 0.1 μmol/L test compound, after 30 minutes, 37° C.
Procedure: The specific method is as follows.
• (1) Fifty microliter-portions were taken from 0.2 μmol/L test compound diluted with β-NADPH solution. • (2) Fifty microliters of 0.2 mg protein/mL human hepatic microsome solution was added to each (except for a sample with a reaction time of 0 minutes). • (3) Incubation was performed with shaking at 37° C. for 30 minutes (concentration in reaction sample: 0.1 μmol/L test compound, 0.1 mg protein/mL human hepatic microsome). • (4) After incubation, 400 μL of methanol was added to terminate the reaction. • (5) To the sample with a reaction time of 0 minutes, 50 μL of 0.2 mg protein/mL hepatic microsome solution was added. • (6) Each of the samples from (4) and (5) was left to stand at −20° C. for 30 minutes or longer, and then centrifuged at 4° C. and 3,000 rpm for approximately 10 minutes. • (7) The supernatant was subjected to measurement with LC/MS/MS, and, based on the peak area obtained for the unchanged form, the residual rate (%) of the unchanged form was calculated as that for the case with an incubation time of 0 minutes was assumed as 100%.

[4] = biological target: hERG (human Ether-a-go-go Related Gene) channel (Homo sapiens, UniProt Q12809); test: hERG channel inhibition effect (whole-cell patch clamp); format: cell-based; details: 22 to 25° C.
Sequence of hERG (human Ether-a-go-go Related Gene) channel (Q12809 whole entry): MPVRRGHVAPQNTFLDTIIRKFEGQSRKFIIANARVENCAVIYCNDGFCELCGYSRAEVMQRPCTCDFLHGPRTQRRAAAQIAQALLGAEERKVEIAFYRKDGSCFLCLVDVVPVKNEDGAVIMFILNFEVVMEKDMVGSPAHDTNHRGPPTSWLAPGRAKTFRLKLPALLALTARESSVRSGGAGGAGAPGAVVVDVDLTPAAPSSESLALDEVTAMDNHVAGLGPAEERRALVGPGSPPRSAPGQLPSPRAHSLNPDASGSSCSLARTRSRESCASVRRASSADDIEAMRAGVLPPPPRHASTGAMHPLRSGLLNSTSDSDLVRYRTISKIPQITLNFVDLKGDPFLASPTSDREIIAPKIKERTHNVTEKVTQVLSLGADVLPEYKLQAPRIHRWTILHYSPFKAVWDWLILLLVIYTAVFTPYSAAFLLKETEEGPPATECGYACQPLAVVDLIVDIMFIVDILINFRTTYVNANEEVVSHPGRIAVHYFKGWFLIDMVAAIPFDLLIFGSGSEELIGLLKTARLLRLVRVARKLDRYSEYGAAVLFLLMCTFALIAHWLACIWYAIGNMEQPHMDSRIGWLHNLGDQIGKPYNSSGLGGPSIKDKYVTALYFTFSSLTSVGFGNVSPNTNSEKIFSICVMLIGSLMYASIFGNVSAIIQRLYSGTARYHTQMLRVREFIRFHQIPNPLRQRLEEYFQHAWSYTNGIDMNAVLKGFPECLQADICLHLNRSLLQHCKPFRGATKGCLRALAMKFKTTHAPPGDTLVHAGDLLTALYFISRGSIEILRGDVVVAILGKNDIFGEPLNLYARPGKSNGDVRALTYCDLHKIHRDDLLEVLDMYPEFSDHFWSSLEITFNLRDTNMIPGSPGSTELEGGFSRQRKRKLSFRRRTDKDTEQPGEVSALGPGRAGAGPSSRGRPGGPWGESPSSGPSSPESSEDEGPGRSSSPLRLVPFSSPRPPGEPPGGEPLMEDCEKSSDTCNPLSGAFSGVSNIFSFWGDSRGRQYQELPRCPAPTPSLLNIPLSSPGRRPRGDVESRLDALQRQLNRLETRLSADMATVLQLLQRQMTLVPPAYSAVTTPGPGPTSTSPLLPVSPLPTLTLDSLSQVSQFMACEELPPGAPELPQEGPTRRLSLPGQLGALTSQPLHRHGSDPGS
Procedure: The hERG (human Ether-a-go-go Related Gene) channel inhibition effect of each test compound was examined with the following patch clamp method.
Under a fixed potential, an hERG current that passed through the whole cell membrane was recorded with the whole-cell patch clamp method.
To confirm the hERG current, the holding potential was set to −80 mV, and depolarizing pulses at −50 mV for 110 msec and at 20 mV for 4 sec and a subsequent repolarizing pulse at −50 mV for 2 sec were provided at a frequency of once per 15 seconds. After the stabilization of the hERG tail current obtained was confirmed, an application was initiated. The pulses were continuously provided also during the application.
The sampling frequency was set to 5 kHz, and Lowpass Filter was applied at 2 kHz. […]
hERG currents were measured by using an amplifier for patch clamping (Axopatch 200B, Molecular Devices, LLC), and electric signals obtained were recorded in a computer via recording/analysis software for patch clamping (pCLAMP 10, Molecular Devices, LLC).
The maximum tail current value was determined on the basis of the current value with the depolarizing pulse at −50 mV for 110 msec, and the change rate (suppression rate) 5 minutes after the initiation of application to the maximum tail current value before application of the test compound was calculated.

[5] = concentration of test compound 10 μM
[6] = concentration of test compound 30 μM

Structure (SMILES)	Residual rate (%) of unchanged form [1]	acetaldehyde oxidation rate (rate with no test compound assumed as 100%) [2, 5]	acetaldehyde oxidation rate (rate with no test compound assumed as 100%) [2, 6]	Residual rate (%) of unchanged form [3]	metabolic stability in mouse hepatic microsomes (in words) [1]	IC50 [4]
COCc1ccc(CNC(=O)c2c(Cl)cccc2Cl)cc1F [Comparative Example 3, reference compound]	1%	–	–	–	–	–
COCc1ccc(CNC(=O)c2c(F)cccc2Cl)cc1F [Comparative Example 5, reference compound]	<1%	–	–	–	–	–
COCc1ccc(CNC(=O)c2cc(-c3ncccc3COC)ccc2F)cc1F [Example 6, 2-Fluoro-N-(3-fluoro-4-(methoxymethyl)benzyl)-5-(3-(methoxymethyl)pyridin-2-yl)benzamide]	24%	139%	161%	75%	confirmed to have stability	–
COCc1ccc(CNC(=O)c2c(F)cccc2Br)cc1F [Comparative Example 4, reference compound]	<1%	–	–	–	–	–
COCc1ccc(CNC(=O)c2cc(-c3n[nH]cc3CO)ccc2Cl)cc1F [Example 7, 2-Chloro-N-(3-fluoro-4-(methoxymethyl)benzyl)-5-(4-(hydroxymethyl)-1H-pyrazol-3-yl)benzamide]	74%	157%	170%	–	–	–
COCc1ccc(CNC(=O)c2cc(-c3ncccc3C(C)O)ccc2F)cc1F (racemic) [Example 2, Racemic 2-fluoro-N-(3-fluoro-4-(methoxymethyl)benzyl)-5-(3-(1-hydroxyethyl)pyridin-2-yl)benzamide]	68%	127%	166%	87%	confirmed to have stability	> 30 µM
COCc1ccc(CNC(=O)c2cc(-c3ncccc3C(C)O)ccc2F)cc1F (single isomer, unassigned) [Example 3, Chiral 2-fluoro-N-(3-fluoro-4-(methoxymethyl)benzyl)-5-(3-(1-hydroxyethyl)pyridin-2-yl)benzamide]	64%	137%	176%	–	–	–
CC(O)c1cccnc1-c1ccc(F)c(C(=O)NCc2ccc(COC(F)F)c(F)c2)c1 (stereo not drawn) [Example 5, N-(4-((Difluoromethoxy)methyl)-3-fluorobenzyl)-2-fluoro-5-(3-(1-hydroxyethyl)pyridin-2-yl)benzamide]	52%	124%	146%	72%	confirmed to have stability	–
COCc1ccc(CNC(=O)c2cc(-c3ncccc3C(C)O)ccc2F)cc1F (single isomer, unassigned) [Example 4, Chiral 2-fluoro-N-(3-fluoro-4-(methoxymethyl)benzyl)-5-(3-(1-hydroxyethyl)pyridin-2-yl)benzamide]	60%	131%	155%	–	–	–
COc1ccc(CNC(=O)c2cc(-c3ncccc3CO)ccc2OCC2CC2)cc1F [Comparative Example 2, reference compound]	6%	–	–	–	–	–
O=C(NCc1ccc2c(c1)OCO2)c1c(Cl)cccc1Cl [Comparative Example 1, reference compound]	<1%	149%	176%	–	–	–
COCc1ccc(CNC(=O)c2c(F)cccc2F)cc1F [Comparative Example 6, reference compound]	1%	–	–	–	–	–

From patent US12509423B2, “Compound, aldehyde dehydrogenase 2 activating agent, pharmaceutical composition, and therapeutic and/or prophylactic drug” (Alchemedicine, Inc., priority 2020, dated 2025)
